pIC50: −log10 of the molar value.
Tests used:
HIV-HXB2 = assay: Antiviral assay: protection of HIV-infected MT4 cells from cell death (MTT); type: cell-based; conditions: Human immunodeficiency virus 1, 120 h; MT4 cells infected with HIV-HXB2; 5 days; MTT viability; rounded to nearest whole number
Method: Methods 20: 309-321]. The method is based on the ability of compounds to protect HIV-infected T lymphoblastoid cells (MT4 cells) from cell-death mediated by the infection. The endpoint of the assay was calculated as the concentration of compound at which the cell viability of the culture was preserved by 50% (‘50% inhibitory concentration’, IC50). The cell viability of a culture was determined by the uptake of soluble, yellow 3-[4,5-dimethylthiazol-2-yl]-2,5-diphenyltetrazolium bromide (MTT) and its reduction to a purple insoluble formazan salt. After solubilization, spectrophotometric methods were employed to measure the amount of formazan product.
MT4 cells were prepared to be in logarithmic-phase growth and a total of 2×10^6 cells infected with either the wild type or site directed mutant clones of HIV-HXB2 at a multiplicity of approximately 0.0001 infectious units of virus per cell in a total volume of between 200-500 μl. The cells were incubated with virus for one hour at 37° C. then washed in 0.01 M phosphate buffered saline, pH 7.2, and resuspensed in culture medium for incubation in culture with serial dilutions of test compound. The culture medium used was RPMI 1640 without phenol red, supplemented with penicillin, streptomycin, L-glutamine and 10% fetal calf serum (GM10).
Test compounds were prepared as 2 mM solutions in dimethyl sulphoxide (DMSO). Four replicate, serial 2-fold dilutions in GM10 were then prepared and 50 microliter amounts placed in 96-well plates over a final concentration range of […]. Fifty microliters GM10 and 3.75×10^4 infected cells were then added to each well. Control cultures containing no cells (blank), uninfected cells (100% viability; 4 replicates) and infected cells without compound (total virus-mediated cell death; 4 replicates) were also prepared. The cultures were then incubated at 37° C. in a humidified atmosphere of 5% CO2 in air for 5 days.
A fresh solution of 5 mg/mL MTT was prepared in 0.01 M phosphate buffered saline, pH 7.2 and 20 μL added to each culture. The cultures were further incubated as before for 2 hours. They were then mixed by pipetting up and down, and 170 microliters of Triton X-100 in acidified isopropanol (10% v/v Triton X-100 in 1:250 mixture of concentrated HCl in isopropanol) were added and the cultures were mixed again by pipetting up and down. When the formazan deposit was fully solubilized by further mixing, the absorbance (OD) of the cultures was measured at 540 nm and 690 nm wavelength (690 nm readings were used as blanks for artefacts between wells). The percent protection for each treated culture was then calculated from the equation:
OD drug-treated cultures)−(OD untreated virus control cultures) % Protection=100%
(OD uninfected cultures)−(OD untreated virus control cultures)
The IC50 was then obtained from graph plots of percentage protection versus log10 drug concentration.

HIV-1 protease = HIV-1 protease (Human immunodeficiency virus type 1 group M subtype B, UniProt P04585); assay: HIV protease inhibition assay (quenched fluorogenic substrate, fluorescence energy transfer)
Method: HIV protease inhibitory activity was assessed using an adaptation of the method of Matayoshi. et al. [Matayoshi E. D. et al (1990).
Crude HIV-1 protease was prepared from E. coli pPTΔN. Cultures were grown at 30° in M9 medium supplemented with 0.2% casamino acids, 100 μg/ml ampicillin and 25 μg/ml thiamine until OD600=0.5-0.6, and the temperature was raised to 42° to induce expression of the protease. After 1.5 hours, the cells were harvested and the pellets stored at −70° until required.
The protease was prepared by lysis of the cells in a French pressure cell followed by precipitation of the enzyme with ammonium sulfate at 30% saturation.
The assay buffer comprised 0.1M sodium acetate pH 4.7, 8 mM EDTA, 0.2 M NaCl.
Tubes were incubated for 2 hours at 37° and the reaction was terminated by the addition of 500 μl of a 2:1 mixture of DMSO:50 mM Tricine pH 8.5. Fluorescence was measured in a fluorescence spectrophotometer, excitation λ=340 nm, emission λ=492 nm.

SMILES: CC(C)(C)NC(=O)[C@@H]1C[C@@H]2CCCC[C@@H]2CN1C[C@@H](O)[C@H](Cc1ccccc1)NC(=O)CC(C)(C)S(C)(=O)=O [Example 95, N-tert-Butyl-1,2,3,4,4a(S),5,6,7,8,8a(S)-decahydro-1-[2(R)-hydroxy-3(S)-[3-(methanesulfonyl)butyramido]-4-phenylbutyl]-2(S)-piperazinecarboxamide]
- pIC50 (HIV-HXB2): 6.60
- melting point: 95 to 110 °C
- pIC50 (HIV-1 protease): 7.21

— patent US6472404B1 (priority 2000, dated 2002)
